Measurements reported in PubChem BioAssay AID248 (DTP/NCI, 2004).
“And” between values parts separate entries of the source, which are not always exact repeats. Equal values may be shown once. Toxic doses and inconclusive results are not listed. No stated cut-off is given here; in the data, active means T/C of 150% or more; inactive means T/C below 125%.

System: L1210 leukemia ip in BDF1 mice, survival T/C
Test: NCI In Vivo Anticancer Drug Screen. Data for tumor model L1210 Leukemia (intraperitoneal) in B6D2F1 (BDF1) mice
Details: endpoint: mean survival time, higher = longer survival
Summary of the method: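 Tumor cells were implanted, animals were treated, and survival was followed. The result divides the treated measurement by the vehicle-control measurement.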

[1] = dose: 100.0 mg/kg/injection, schedule: Q01DX009 (ip), vehicle: Klucel (hydroxypropylcellulose) (HPC)
[2] = dose: 100.0 mg/kg/injection, schedule: Q04DX003 (ip), vehicle: Klucel (hydroxypropylcellulose) (HPC)
[3] = dose: 200.0 mg/kg/injection, schedule: Q01DX009 (ip), vehicle: Klucel (hydroxypropylcellulose) (HPC)
[4] = dose: 200.0 mg/kg/injection, schedule: Q04DX003 (ip), vehicle: Klucel (hydroxypropylcellulose) (HPC)
[5] = dose: 400.0 mg/kg/injection, schedule: Q01DX009 (ip), vehicle: Klucel (hydroxypropylcellulose) (HPC)
[6] = dose: 400.0 mg/kg/injection, schedule: Q04DX003 (ip), vehicle: Klucel (hydroxypropylcellulose) (HPC)
[7] = dose: 50.0 mg/kg/injection, schedule: Q01DX001 (ip), vehicle: saline
[8] = dose: 100.0 mg/kg/injection, schedule: Q01DX001 (ip), vehicle: saline
[9] = dose: 200.0 mg/kg/injection, schedule: Q01DX001 (ip), vehicle: saline
[10] = dose: 400.0 mg/kg/injection, schedule: Q01DX001 (ip), vehicle: saline
[11] = dose: 100.0 mg/kg/injection, schedule: Q04DX003 (ip), vehicle: saline
[12] = dose: 100.0 mg/kg/injection, schedule: Q04DX002 (ip), vehicle: saline
[13] = dose: 200.0 mg/kg/injection, schedule: Q04DX002 (ip), vehicle: saline
[14] = dose: 100.0 mg/kg/injection, schedule: Q04DX003 (ip), vehicle: saline with Tween-80
[15] = dose: 200.0 mg/kg/injection, schedule: Q04DX003 (ip), vehicle: saline with Tween-80
[16] = dose: 400.0 mg/kg/injection, schedule: Q04DX003 (ip), vehicle: saline with Tween-80

Measured: T/C

COc1cc(NC(=O)CC(C)=O)cc2c(C)cc(=O)n(C)c12
inactive: [1] 101 % of control | [2] 106 % of control | [3] 98 % of control | [4] 89 % of control | [5] 91 % of control | [6] 94 % of control

CC(=O)OCC1OC(N2C(=O)/C(=C/c3ccc4c(c3)OCO4)SC2=S)C(OC(C)=O)C(OC(C)=O)C1OC(C)=O (stereo not drawn)
inactive: dose: 12.5 mg/kg/injection, schedule: Q01DX005 (ip), vehicle: other 102 % of control | dose: 25.0 mg/kg/injection, schedule: Q01DX005 (ip), vehicle: other 100 % of control | dose: 50.0 mg/kg/injection, schedule: Q01DX005 (ip), vehicle: other 96 % of control | dose: 100.0 mg/kg/injection, schedule: Q01DX005 (ip), vehicle: other 94 % of control | dose: 200.0 mg/kg/injection, schedule: Q01DX005 (ip), vehicle: other 94 % of control

COC(=O)N1C(c2ccccc2)CS1(=O)=O (stereo not drawn)
inactive: dose: 25.0 mg/kg/injection, schedule: Q04DX002 (ip), vehicle: Klucel (hydroxypropylcellulose) (HPC) 106 % of control | dose: 50.0 mg/kg/injection, schedule: Q04DX002 (ip), vehicle: Klucel (hydroxypropylcellulose) (HPC) 113 % of control | dose: 100.0 mg/kg/injection, schedule: Q04DX002 (ip), vehicle: Klucel (hydroxypropylcellulose) (HPC) 97 % of control and 109 % of control

CC(C)(C)OC(=O)N1CCCC1C(=O)Oc1ccc([N+](=O)[O-])cc1 (stereo not drawn)
inactive: dose: 25.0 mg/kg/injection, schedule: Q01DX009 (ip), vehicle: saline with Tween-80 102 % of control | dose: 50.0 mg/kg/injection, schedule: Q01DX009 (ip), vehicle: saline with Tween-80 88 % of control | dose: 100.0 mg/kg/injection, schedule: Q01DX009 (ip), vehicle: saline with Tween-80 93 % of control

O=C(CC(c1ccccc1)N1CCCCC1)c1ccccc1 (stereo not drawn)
inactive: [7] 97 % of control | [8] 100 % of control | [9] 94 % of control | [10] 97 % of control

CCCCCCCCCCCCCCCCCCNC(=S)Nc1ccc(S(=O)(=O)c2ccc(NC(=S)NCCCCCCCCCCCCCCCCCC)cc2)cc1
inactive: [7] 98 % of control | [8] 87 % of control | [10] 106 % of control

CC(C)CCCC(C)C1CCC2C3CC=C4CC(OP(=O)(N5CC5)N5CC5)CCC4(C)C3CCC12C (stereo not drawn)
inactive: dose: 50.0 mg/kg/injection, schedule: Q01DX001 (sc), vehicle: steriod suspending solution 102 % of control | dose: 100.0 mg/kg/injection, schedule: Q01DX001 (sc), vehicle: steriod suspending solution 96 % of control | dose: 200.0 mg/kg/injection, schedule: Q01DX001 (sc), vehicle: steriod suspending solution 94 % of control | dose: 400.0 mg/kg/injection, schedule: Q01DX001 (sc), vehicle: steriod suspending solution 89 % of control

CN(C)/C=N/N1CCCCCC1
inactive: [11] 98 % of control

Cc1c(C#N)sc2ccccc12
inactive: [8] 96 % of control | [9] 96 % of control | [10] 96 % of control

ClCCC1OCCCO1
inactive: dose: 50.0 mg/kg/injection, schedule: Q01DX009 (ip), vehicle: saline + alcohol 96 % of control | dose: 100.0 mg/kg/injection, schedule: Q01DX009 (ip), vehicle: saline + alcohol 100 % of control | dose: 200.0 mg/kg/injection, schedule: Q01DX009 (ip), vehicle: saline + alcohol 96 % of control

C[CH2][Sn]([CH2]C)([CH2]C)[NH]S(=O)(=O)c1ccc(C)cc1
inactive: dose: 3.12 mg/kg/injection, schedule: Q01DX009 (ip), vehicle: saline with Tween-80 92 % of control | dose: 12.5 mg/kg/injection, schedule: Q04DX003 (ip), vehicle: saline 106 % of control

O=C1C=CC(=O)C2C3c4ccccc4C(c4ccccc43)C12 (stereo not drawn)
inactive: dose: 100.0 mg/kg/injection, schedule: Q01DX001 (ip), vehicle: saline with Tween-80 93 % of control | [12] 93 % of control | dose: 200.0 mg/kg/injection, schedule: Q01DX001 (ip), vehicle: saline with Tween-80 108 % of control | [13] 101 % of control | dose: 400.0 mg/kg/injection, schedule: Q01DX001 (ip), vehicle: saline with Tween-80 100 % of control | dose: 400.0 mg/kg/injection, schedule: Q04DX002 (ip), vehicle: saline 90 % of control

COC(=O)C1=C2c3ccccc3NC(=O)N2NC1C(=O)OC (stereo not drawn)
inactive: dose: 50.0 mg/kg/injection, schedule: Q04DX002 (ip), vehicle: saline 108 % of control | [12] 90 % of control | [13] 90 % of control

CC(=O)Nc1ccc2oc(=O)ccc2c1
inactive: [14] 98 % of control | [15] 105 % of control | [16] 98 % of control

NNC(=O)c1ccccc1NCCO
inactive: [8] 101 % of control | [9] 97 % of control | [10] 101 % of control

COc1ccc(-c2n[nH]c(C(F)(F)F)c2N=NN(C)C)cc1OC
inactive: dose: 75.0 mg/kg/injection, schedule: Q01DX001 (ip), vehicle: other 93 % of control | dose: 150.0 mg/kg/injection, schedule: Q01DX001 (ip), vehicle: other 94 % of control | dose: 300.0 mg/kg/injection, schedule: Q01DX001 (ip), vehicle: other 91 % of control

CN1CC2=C(C1)C(N(C(=O)c1ccc(-c3ccccc3)cc1)C(=O)c1ccc(-c3ccccc3)cc1)=NCN2
inactive: [1] 97 % of control | [3] 94 % of control | [5] 94 % of control

CC(=O)Nc1ccc(S(N)(=O)=O)cn1
inactive: [11] 102 % of control | dose: 200.0 mg/kg/injection, schedule: Q04DX003 (ip), vehicle: saline 89 % of control | dose: 400.0 mg/kg/injection, schedule: Q04DX003 (ip), vehicle: saline 86 % of control

O=C(/C=C/c1cccc2ccccc12)c1ccc(Cl)cc1
inactive: [2] 105 % of control | [4] 96 % of control | [6] 94 % of control

O=S1(=O)CC(c2ccc(F)cc2)Nc2ccccc21 (stereo not drawn)
inactive: [2] 102 % of control | [4] 102 % of control | [6] 97 % of control

CC(=O)CC(Cl)(C(F)(F)F)C(F)(F)F
inactive: dose: 50.0 mg/kg/injection, schedule: Q04DX003 (ip), vehicle: saline with Tween-80 100 % of control | [14] 100 % of control | [15] 86 % of control | [16] 88 % of control

NNC(=O)c1cc2c3ccccc3ncc2c2ccccc12
inactive: [14] 86 % of control | [15] 94 % of control | [16] 108 % of control

CN(C)CCCCc1cn(-c2ccccc2)c2ccccc12
inactive: dose: 12.5 mg/kg/injection, schedule: Q01DX009 (ip), vehicle: saline 100 % of control | dose: 25.0 mg/kg/injection, schedule: Q01DX009 (ip), vehicle: saline 93 % of control | dose: 25.0 mg/kg/injection, schedule: Q04DX003 (ip), vehicle: saline 102 % of control | dose: 30.0 mg/kg/injection, schedule: Q01DX015 (ip), vehicle: saline 86 % of control | dose: 50.0 mg/kg/injection, schedule: Q01DX009 (ip), vehicle: saline 107 % of control | dose: 50.0 mg/kg/injection, schedule: Q04DX003 (ip), vehicle: saline 103 % of control

O=C(CCl)Nc1cccc2c1C(=O)c1c(c(O)c3ccccc3c1O)C2=O
inactive: [14] 94 % of control | [15] 92 % of control | [16] 90 % of control
